From ChEMBL document CHEMBL1201862, “PubChem BioAssay data set” (2004)
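A five-concentration, 48-hour dose response in 96-well plates underlies each endpoint, interpolated linearly between surrounding concentrations. GI50 marks 50% less growth.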 Active and inactive are the calls of the source. Cut-off read from the data, not from the text of the source: active = GI50 up to about 1.1 µM and inactive = higher.

Legend:
Assay in all cases: DTP human tumour cell line panel, 48 h
A498 = system: A498
BT-549 = system: BT-549
CCRF-CEM = system: CCRF-CEM
HCT-116 = system: HCT-116
HL-60 = system: HL-60
HOP-92 = system: HOP-92
HT-29 = system: HT-29
Hs-578T = system: Hs-578T
M14 = system: M14
MCF7 = system: MCF7
NCI-H23 = system: NCI-H23
NCI-H460 = system: NCI-H460
NCI/ADR-RES = system: NCI/ADR-RES
OVCAR-5 = system: OVCAR-5
RXF 393 = system: RXF 393
SF-268 = system: SF-268
SN12C = system: SN12C
T47D = system: T47D
U-251 = system: U-251
DU-145 = system: DU-145

| Structure (SMILES) | GI50 (A498) | GI50 (BT-549) | GI50 (CCRF-CEM) | GI50 (HCT-116) | GI50 (HL-60) | GI50 (HOP-92) | GI50 (HT-29) | GI50 (Hs-578T) | GI50 (M14) | GI50 (MCF7) | GI50 (NCI-H23) | GI50 (NCI-H460) | GI50 (NCI/ADR-RES) | GI50 (OVCAR-5) | GI50 (RXF 393) | GI50 (SF-268) | GI50 (SN12C) | GI50 (T47D) | GI50 (U-251) | GI50 (DU-145) |
| --- | --- | --- | --- | --- | --- | --- | --- | --- | --- | --- | --- | --- | --- | --- | --- | --- | --- | --- | --- | --- |
| COc1cc(/C=C/C2=NN(c3cccc(S(=O)(=O)O)c3)C3(C2)C(Cl)C(=O)N3c2nc3ccccc3s2)ccc1O (stereo not given) | 55.6 µM (inactive) | 14.7 µM (inactive) | 17.7 µM (inactive) | 19.5 µM (inactive) | 21.4 µM (inactive) | 13.2 µM (inactive) | 20.7 µM (inactive) | 50 µM (inactive) | 40.7 µM (inactive) | 33.1 µM (inactive) | 13 µM (inactive) | 32.7 µM (inactive) | 27.4 µM (inactive) | 20.2 µM (inactive) | 29.2 µM (inactive) | 23.8 µM (inactive) | 21.9 µM (inactive) | 6.47 µM (inactive) | 18 µM (inactive) | – |
| O=C1c2cc(Cl)ccc2-n2cnnc2C2CSCN12 (stereo not given) | 55.6 µM (inactive) | > 100 µM (inactive) | > 100 µM (inactive) | > 100 µM (inactive) | – | – | > 100 µM (inactive) | > 100 µM (inactive) | > 100 µM (inactive) | > 100 µM (inactive) | – | > 100 µM (inactive) | > 100 µM (inactive) | > 100 µM (inactive) | > 100 µM (inactive) | > 100 µM (inactive) | > 100 µM (inactive) | > 100 µM (inactive) | > 100 µM (inactive) | > 100 µM (inactive) |
| CN1C(=O)c2cccc3cc([N+](=O)[O-])cc(c23)C1=O | – | > 10 µM (inactive) | > 10 µM (inactive) | 8.61 µM (inactive) | > 10 µM (inactive) | > 10 µM (inactive) | > 10 µM (inactive) | > 10 µM (inactive) | > 10 µM (inactive) | 4.05 µM (inactive) | 9.08 µM (inactive) | – | > 10 µM (inactive) | > 10 µM (inactive) | – | 9.25 µM (inactive) | > 10 µM (inactive) | > 10 µM (inactive) | > 10 µM (inactive) | > 10 µM (inactive) |
| O=C(NNC(=O)c1ccc(Cl)cc1NC(=O)C12CC3CC(CC(C3)C1)C2)c1ccc(Cl)cc1 | – | 41.7 µM (inactive) | 23.4 µM (inactive) | 20.3 µM (inactive) | 25.7 µM (inactive) | 17.5 µM (inactive) | 28.2 µM (inactive) | 21.5 µM (inactive) | 21.2 µM (inactive) | 27.9 µM (inactive) | 39.7 µM (inactive) | 23.2 µM (inactive) | 24.8 µM (inactive) | 28.3 µM (inactive) | 19.5 µM (inactive) | 29.9 µM (inactive) | 27.7 µM (inactive) | 27.9 µM (inactive) | 20.2 µM (inactive) | 22.8 µM (inactive) |
| CCCCCCOc1ccc(NC2=C(Cl)C(=O)c3ncccc3C2=O)cc1 | > 10 µM (inactive) | 1.76 µM (inactive) | 1.21 µM (inactive) | 1.16 µM (inactive) | – | > 10 µM (inactive) | 3.87 µM (inactive) | 1.79 µM (inactive) | 1.88 µM (inactive) | 1.11 µM (active) | 1.97 µM (inactive) | 1.55 µM (inactive) | – | 7.35 µM (inactive) | 1.84 µM (inactive) | 1.97 µM (inactive) | 1.67 µM (inactive) | 1.68 µM (inactive) | 1.61 µM (inactive) | 1.5 µM (inactive) |
| CC(=O)O[C@H]1CC[C@@]2(C)C(=CC[C@@H]3[C@@H]2CC[C@]2(C)c4nc(N)c(C#N)cc4C[C@@H]32)C1 | > 67.6 µM (inactive) | 33.3 µM (inactive) | 14 µM (inactive) | 18.2 µM (inactive) | 12.2 µM (inactive) | 33 µM (inactive) | 9.82 µM (inactive) | 24.9 µM (inactive) | > 87.5 µM (inactive) | 33.6 µM (inactive) | 35 µM (inactive) | 19.8 µM (inactive) | – | > 85.3 µM (inactive) | 10.7 µM (inactive) | 60.5 µM (inactive) | 36.9 µM (inactive) | 11.4 µM (inactive) | 43.9 µM (inactive) | 40.7 µM (inactive) |
| O=c1[nH]c(=O)n(C2CC(O)C(CO)O2)cc1OCC1CCCCC1 (stereo not given) | – | > 100 µM (inactive) | > 100 µM (inactive) | > 100 µM (inactive) | > 100 µM (inactive) | – | > 100 µM (inactive) | > 100 µM (inactive) | > 100 µM (inactive) | > 100 µM (inactive) | > 100 µM (inactive) | > 100 µM (inactive) | > 100 µM (inactive) | > 100 µM (inactive) | > 100 µM (inactive) | > 100 µM (inactive) | > 100 µM (inactive) | > 100 µM (inactive) | > 100 µM (inactive) | > 100 µM (inactive) |
| Oc1[nH]c(Nc2cc(Cl)cc(Cl)c2)nc2ncnc1-2 | – | > 75 µM (inactive) | > 75 µM (inactive) | > 75 µM (inactive) | – | > 75 µM (inactive) | > 75 µM (inactive) | 17.9 µM (inactive) | > 75 µM (inactive) | > 75 µM (inactive) | > 75 µM (inactive) | > 75 µM (inactive) | > 75 µM (inactive) | > 75 µM (inactive) | > 75 µM (inactive) | > 75 µM (inactive) | > 75 µM (inactive) | > 75 µM (inactive) | > 75 µM (inactive) | > 75 µM (inactive) |
